Assay results as given in US4281121A, “1,3,4-Thiadiazole-2-carboxylic acid derivatives, process for making the same and fungicidal and nematocidal compositions containing same” (Schering Aktiengesellschaft, priority 1978, dated 1981).

What follows are compounds tested on Pythium ultimum (assay: Threshold concentration test for use of the compounds against Pythium ultimum (infested soil, garden peas)). Conditions: 20 mg/l soil; 3 weeks.
Type: in vivo
Parameters: key to root evaluation (1-4): 4: white roots without fungous necrosis; 3: white roots, minor fungous necrosis; 2: brown roots, already more pronounced fungous necrosis; 1: heavy fungous necrosis, roots rotted
Procedure: Threshold concentration test for use of the compounds against Pythium ultimum
A 20% concentration of certain pulverulent active agents as listed below were mixed in uniform manner into a soil which had been heavily infested by Pythium ultimum. The thus treated soil was then placed into clay dishes of a capacity of 0.5 l earth. Without any intermediate time lapse 20 grain of garden peas (Pisum sativum L. convar. medullare Alef.) of the type "Wunder von Kelvedon" were then seeded into each of the clay dishes. After a cultivation period of three weeks at 20° to 24° C. in a hothouse the number of sound peas was determined and a root evaluation was carried out. The active agents amounts and results appear from the following table.
The root evaluation was carried out on a scale from 1 to 4 as follows: […]
In the case of `CCS(=O)(=O)c1nnc(C(=O)N2CCC2)s1` [5-ethylsulfonyl-1,3,4-thiadiazole-2-carboxylic acid-N,N-trimethyleneamide], the “root evaluation (1-4)” value was 4. `C=CCNC(=O)c1nnc([S+]([O-])CCC)s1` (stereo not drawn) [5-propylsulfinyl-1,3,4-thiadiazole-2-carboxylic acid-allylamide] was tested, and the “root evaluation (1-4)” value was 2. For `CCCS(=O)(=O)c1nnc(C(=O)NCCCCl)s1` [5-propylsulfonyl-1,3,4-thiadiazole-2-carboxylic acid-(3-chloropropyl)-amide], the “root evaluation (1-4)” value was 1. `CCCS(=O)(=O)c1nnc(C(=O)NCC)s1` [5-propylsulfonyl-1,3,4-thiadiazole-2-carboxylic acid-ethylamide] was tested, and the “root evaluation (1-4)” value was 3.

Same assay, conditions: 20 mg/l soil; 20 grains per dish; 3 weeks at 20-24° C.
For `CCS(=O)(=O)c1nnc(C(=O)N2CCC2)s1` [5-ethylsulfonyl-1,3,4-thiadiazole-2-carboxylic acid-N,N-trimethyleneamide], the “number of sound peas” value was 20. In the case of `C=CCNC(=O)c1nnc([S+]([O-])CCC)s1` (stereo not drawn) [5-propylsulfinyl-1,3,4-thiadiazole-2-carboxylic acid-allylamide], the “number of sound peas” value was 15. `CCCS(=O)(=O)c1nnc(C(=O)NCCCCl)s1` [5-propylsulfonyl-1,3,4-thiadiazole-2-carboxylic acid-(3-chloropropyl)-amide] was tested, and the “number of sound peas” value was 10. For `CCCS(=O)(=O)c1nnc(C(=O)NCC)s1` [5-propylsulfonyl-1,3,4-thiadiazole-2-carboxylic acid-ethylamide], the “number of sound peas” value was 14.

Same assay, conditions: 40 mg/l soil; 3 weeks
For `CCS(=O)(=O)c1nnc(C(=O)N2CCC2)s1` [5-ethylsulfonyl-1,3,4-thiadiazole-2-carboxylic acid-N,N-trimethyleneamide], the “root evaluation (1-4)” value was 4. `C=CCNC(=O)c1nnc([S+]([O-])CCC)s1` (stereo not drawn) [5-propylsulfinyl-1,3,4-thiadiazole-2-carboxylic acid-allylamide] was tested, and the “root evaluation (1-4)” value was 4. With `CCCS(=O)(=O)c1nnc(C(=O)NCCCCl)s1` [5-propylsulfonyl-1,3,4-thiadiazole-2-carboxylic acid-(3-chloropropyl)-amide] the “root evaluation (1-4)” value was 3. `CCCS(=O)(=O)c1nnc(C(=O)NCC)s1` [5-propylsulfonyl-1,3,4-thiadiazole-2-carboxylic acid-ethylamide] was tested, and the “root evaluation (1-4)” value was 4.

Same assay, conditions: 40 mg/l soil; 20 grains per dish; 3 weeks at 20-24° C.
`CCS(=O)(=O)c1nnc(C(=O)N2CCC2)s1` [5-ethylsulfonyl-1,3,4-thiadiazole-2-carboxylic acid-N,N-trimethyleneamide] was tested, and the “number of sound peas” value was 19. With `C=CCNC(=O)c1nnc([S+]([O-])CCC)s1` (stereo not drawn) [5-propylsulfinyl-1,3,4-thiadiazole-2-carboxylic acid-allylamide] the “number of sound peas” value was 19. For `CCCS(=O)(=O)c1nnc(C(=O)NCCCCl)s1` [5-propylsulfonyl-1,3,4-thiadiazole-2-carboxylic acid-(3-chloropropyl)-amide], the “number of sound peas” value was 19. `CCCS(=O)(=O)c1nnc(C(=O)NCC)s1` [5-propylsulfonyl-1,3,4-thiadiazole-2-carboxylic acid-ethylamide] was tested, and the “number of sound peas” value was 14.

Same assay, conditions: 80 mg/l soil; 3 weeks
In the case of `CCS(=O)(=O)c1nnc(C(=O)N2CCC2)s1` [5-ethylsulfonyl-1,3,4-thiadiazole-2-carboxylic acid-N,N-trimethyleneamide], the “root evaluation (1-4)” value was 4. For `C=CCNC(=O)c1nnc([S+]([O-])CCC)s1` (stereo not drawn) [5-propylsulfinyl-1,3,4-thiadiazole-2-carboxylic acid-allylamide], the “root evaluation (1-4)” value was 4. With `CCCS(=O)(=O)c1nnc(C(=O)NCCCCl)s1` [5-propylsulfonyl-1,3,4-thiadiazole-2-carboxylic acid-(3-chloropropyl)-amide] the “root evaluation (1-4)” value was 4. With `CCCS(=O)(=O)c1nnc(C(=O)NCC)s1` [5-propylsulfonyl-1,3,4-thiadiazole-2-carboxylic acid-ethylamide] the “root evaluation (1-4)” value was 4.

Same assay, conditions: 80 mg/l soil; 20 grains per dish; 3 weeks at 20-24° C.
In the case of `CCS(=O)(=O)c1nnc(C(=O)N2CCC2)s1` [5-ethylsulfonyl-1,3,4-thiadiazole-2-carboxylic acid-N,N-trimethyleneamide], the “number of sound peas” value was 20. `C=CCNC(=O)c1nnc([S+]([O-])CCC)s1` (stereo not drawn) [5-propylsulfinyl-1,3,4-thiadiazole-2-carboxylic acid-allylamide] was tested, and the “number of sound peas” value was 19. In the case of `CCCS(=O)(=O)c1nnc(C(=O)NCCCCl)s1` [5-propylsulfonyl-1,3,4-thiadiazole-2-carboxylic acid-(3-chloropropyl)-amide], the “number of sound peas” value was 19. `CCCS(=O)(=O)c1nnc(C(=O)NCC)s1` [5-propylsulfonyl-1,3,4-thiadiazole-2-carboxylic acid-ethylamide] was tested, and the “number of sound peas” value was 14.

These compounds were tested on Helminthosporium gram (assay: not given). Conditions: 20 g active agent per 100 kg; about 5 weeks.
`COCCNC(=O)c1nnc(S(C)(=O)=O)s1` [5-methylsulfonyl-1,3,4-thiadiazole-2-carboxylic acid-(2-methoxyethyl)-amide] was tested, and the “% activity” value was 92%.

Same assay, conditions: 50 g active agent per 100 kg; about 5 weeks
For `CCCC[S+]([O-])c1nnc(C(=O)N(C)C)s1` (stereo not drawn) [5-butylsulfinyl-1,3,4-thiadiazole-2-carboxylic acid-dimethylamide], the “% activity” value was 100%. `CC(C)[S+]([O-])c1nnc(C(N)=O)s1` (stereo not drawn) [5-isopropylsulfinyl-1,3,4-thiadiazole-2-carboxamide] was tested, and the “% activity” value was 100%. In the case of `C[S+]([O-])c1nnc(C(N)=O)s1` (stereo not drawn) [5-methylsulfinyl-1,3,4-thiadiazole-2-carboxamide], the “% activity” value was 100%. `COCCNC(=O)c1nnc(S(C)(=O)=O)s1` [5-methylsulfonyl-1,3,4-thiadiazole-2-carboxylic acid-(2-methoxyethyl)-amide] was tested, and the “% activity” value was 100%. `C=CCNC(=O)c1nnc([S+]([O-])CCC)s1` (stereo not drawn) [5-propylsulfinyl-1,3,4-thiadiazole-2-carboxylic acid-allylamide] was tested, and the “% activity” value was 96%.

The compounds below were run on Tilletia caries (assay: Treatment of oat seeds infested with Tilletia caries (spore germination)). Conditions: 10 g active agent per 100 kg.
Type: in vivo
`CCCS(=O)(=O)c1nnc(C(=O)NCC)s1` [5-propylsulfonyl-1,3,4-thiadiazole-2-carboxylic acid-ethylamide] was tested, and the “% activity” value was 99.3%.

Same assay, conditions: 20 g active agent per 100 kg
In the case of `CC(C)[S+]([O-])c1nnc(C(=O)NCC2CCCCC2)s1` (stereo not drawn) [5-isopropylsulfinyl-1,3,4-thiadiazole-2-carboxylic acid-cyclohexylmethylamide], the “% activity” value was 99%. `C[S+]([O-])c1nnc(C(N)=O)s1` (stereo not drawn) [5-methylsulfinyl-1,3,4-thiadiazole-2-carboxamide] was tested, and the “% activity” value was 98%. In the case of `COCCNC(=O)c1nnc(S(C)(=O)=O)s1` [5-methylsulfonyl-1,3,4-thiadiazole-2-carboxylic acid-(2-methoxyethyl)-amide], the “% activity” value was 93%. In the case of `C=CCNC(=O)c1nnc([S+]([O-])CCC)s1` (stereo not drawn) [5-propylsulfinyl-1,3,4-thiadiazole-2-carboxylic acid-allylamide], the “% activity” value was 100%. In the case of `CCCS(=O)(=O)c1nnc(C(=O)NCC)s1` [5-propylsulfonyl-1,3,4-thiadiazole-2-carboxylic acid-ethylamide], the “% activity” value was 99.8%.

Same assay, conditions: 50 g active agent per 100 kg
In the case of `CC(C)[S+]([O-])c1nnc(C(N)=O)s1` (stereo not drawn) [5-isopropylsulfinyl-1,3,4-thiadiazole-2-carboxamide], the “% activity” value was 100%. For `CC(C)[S+]([O-])c1nnc(C(=O)NCC2CCCCC2)s1` (stereo not drawn) [5-isopropylsulfinyl-1,3,4-thiadiazole-2-carboxylic acid-cyclohexylmethylamide], the “% activity” value was 100%. With `C[S+]([O-])c1nnc(C(N)=O)s1` (stereo not drawn) [5-methylsulfinyl-1,3,4-thiadiazole-2-carboxamide] the “% activity” value was 100%. In the case of `COCCNC(=O)c1nnc(S(C)(=O)=O)s1` [5-methylsulfonyl-1,3,4-thiadiazole-2-carboxylic acid-(2-methoxyethyl)-amide], the “% activity” value was 100%. With `C=CCNC(=O)c1nnc([S+]([O-])CCC)s1` (stereo not drawn) [5-propylsulfinyl-1,3,4-thiadiazole-2-carboxylic acid-allylamide] the “% activity” value was 100%. In the case of `CCCS(=O)(=O)c1nnc(C(=O)NCC)s1` [5-propylsulfonyl-1,3,4-thiadiazole-2-carboxylic acid-ethylamide], the “% activity” value was 100%.
